Source: US6737383B1, “Herbicidal oxadiazolidines” (priority 1999, dated 2004)

Experiments:
bedstraw = experiment: Test B pre/postemergence bedstraw; type: in vivo, Galium aparine; settings: Postemergence
Procedure, shortened: (§1)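 Test chemicals in a non-phytotoxic solvent mixture with surfactant were sprayed preemergence onto planted seeds and postemergence onto plants 2 to 18 cm tall (1- to 4-leaf stage). After twelve to sixteen days in a greenhouse, injury was visually rated against untreated controls from 0 (no effect) to 10 (complete control).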

blackgrass = experiment: Test B pre/postemergence blackgrass; type: in vivo, Alopecurus myosuroides
Procedure, shortened: as §1

surinam grass = experiment: Test B pre/postemergence surinam grass; type: in vivo, Brachiaria decumbens
Procedure, shortened: as §1

cocklebur = experiment: Test B pre/postemergence cocklebur; type: in vivo, Xanthium strumarium
Procedure, shortened: as §1

corn = experiment: Test B pre/postemergence corn; type: in vivo, Zea mays
Procedure, shortened: as §1

crabgrass = experiment: Test B pre/postemergence crabgrass; type: in vivo, Digitaria sanguinalis
Procedure, shortened: as §1

morningglory = experiment: Test B pre/postemergence morningglory; type: in vivo, Ipomoea hederacea
Procedure, shortened: as §1

pigweed = experiment: Test B pre/postemergence pigweed; type: in vivo, Amaranthus retroflexus
Procedure, shortened: as §1

rape = experiment: Test B pre/postemergence rape; type: in vivo, Brassica napus
Procedure, shortened: as §1

sugar beet = experiment: Test B pre/postemergence sugar beet; type: in vivo, Beta vulgaris
Procedure, shortened: as §1

velvetleaf = experiment: Test B pre/postemergence velvetleaf; type: in vivo, Abutilon theophrasti
Procedure, shortened: as §1

wheat = experiment: Test B pre/postemergence wheat; type: in vivo, Triticum aestivum
Procedure, shortened: as §1

wild oat = experiment: Test B pre/postemergence wild oat; type: in vivo, Avena fatua
Procedure, shortened: as §1

purple nutsedge = experiment: Test B pre/postemergence purple nutsedge; type: in vivo, Cyperus rotundus
Procedure, shortened: as §1

smallflower flatsedge = experiment: Test B flood test smallflower flatsedge; type: in vivo, Cyperus difformis
Procedure, shortened: (§2)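 Read-out is a visual response score from 0 (no effect) to 10 (complete control), assigned by comparison with untreated controls. Treatment was applied at the 2-leaf stage, and plants stayed in the greenhouse for twelve to sixteen days before scoring.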

duck salad = experiment: Test B flood test duck salad; type: in vivo, Heteranthera limosa
Procedure, shortened: as §2

[1] = Postemergence, Rate 250 g/ha, scale 0 to 10
[2] = Postemergence, Rate 500 g/ha, scale of 0 to 10 where 0 is no effect and 10 is complete control
[3] = Preemergence, Rate 62 g/ha, scale 0 to 10 (0 no effect, 10 complete control)
[4] = Preemergence, Rate 125 g/ha, scale of 0 to 10 where 0 is no effect and 10 is complete control
[5] = Preemergence, Rate 250 g/ha, scale 0 to 10, 0 is no effect, 10 is complete control
[6] = Preemergence, Rate 500 g/ha, scale 0 to 10, 0 is no effect, 10 is complete control
[7] = Rate 62 g/ha, Postemergence, scale 0 to 10, 0 no effect, 10 complete control
[8] = Rate 125 g/ha, Postemergence, scale 0 to 10, 0 is no effect, 10 is complete control
[9] = Postemergence block (flood test species), Rate 250 g/ha, scale 0 to 10
[10] = Postemergence section (flood test species), Rate 500 g/ha, scale of 0 to 10 where 0 is no effect and 10 is complete control
[11] = Rate 62 g/ha, Postemergence (flood test), scale 0 to 10, 0 no effect, 10 complete control
[12] = Rate 125 g/ha, Postemergence section (flood test species), scale 0 to 10, 0 is no effect, 10 is complete control

## CC(C)N(C(=O)n1oc(=O)n(CCC#N)c1=O)c1ccccc1 [Compound 436]
bedstraw; Rate 250 g/ha, scale 0 to 10
  Bedstraw plant response rating: 0
bedstraw; Rate 62 g/ha, scale 0 to 10, 0 no effect, 10 complete control
  Bedstraw plant response rating: 0
bedstraw; Rate 125 g/ha, scale 0 to 10, 0 is no effect, 10 is complete control
  Bedstraw plant response rating: 0
blackgrass; [1]
  Blackgrass plant response rating: 0
blackgrass; [2]
  Blackgrass plant response rating: 9
blackgrass; [3]
  Plant response rating, Blackgrass: 0
blackgrass; [4]
  Plant response rating, Blackgrass: 0
blackgrass; [5]
  Blackgrass plant response rating: 0
blackgrass; [6]
  Blackgrass plant response rating: 9
blackgrass; [7]
  Blackgrass plant response rating: 0
blackgrass; [8]
  Blackgrass plant response rating: 0
Surinam grass; Postemergence, Rate 250 g/ha, scale 0 to 10, 0 no effect, 10 complete control
  B. signalgrass plant response rating: 0
Surinam grass; [2]
  B. signalgrass plant response rating: 8
Surinam grass; [3]
  Plant response rating, B. signalgrass: 0
Surinam grass; [4]
  Plant response rating, B. signalgrass: 0
Surinam grass; [5]
  B. signalgrass plant response rating: 0
Surinam grass; [6]
  B. signalgrass plant response rating: 10
Surinam grass; [7]
  B. signalgrass plant response rating: 0
Surinam grass; [8]
  B. signalgrass plant response rating: 0
cocklebur; [1]
  Cocklebur plant response rating: 0
cocklebur; [2]
  Cocklebur plant response rating: 0
cocklebur; [3]
  Plant response rating, Cocklebur: 0
cocklebur; [4]
  Plant response rating, Cocklebur: 0
cocklebur; [5]
  Cocklebur plant response rating: 0
cocklebur; [6]
  Cocklebur plant response rating: 0
cocklebur; [7]
  Cocklebur plant response rating: 0
cocklebur; [8]
  Cocklebur plant response rating: 0
corn; [1]
  Corn plant response rating: 0
corn; [2]
  Corn plant response rating: 5
corn; [3]
  Plant response rating, Corn: 0
corn; [4]
  Plant response rating, Corn: 0
corn; [5]
  Corn plant response rating: 0
corn; [6]
  Corn plant response rating: 9
corn; [7]
  Corn plant response rating: 0
corn; [8]
  Corn plant response rating: 0
crabgrass; [1]
  Crabgrass plant response rating: 1
crabgrass; [2]
  Crabgrass plant response rating: 9
crabgrass; [3]
  Plant response rating, Crabgrass: 0
crabgrass; [4]
  Plant response rating, Crabgrass: 0
crabgrass; [5]
  Crabgrass plant response rating: 0
crabgrass; [6]
  Crabgrass plant response rating: 10
crabgrass; [7]
  Crabgrass plant response rating: 0
crabgrass; [8]
  Crabgrass plant response rating: 0
morningglory; [1]
  Morningglory plant response rating: 2
morningglory; [2]
  Morningglory plant response rating: 10
morningglory; [3]
  Plant response rating, Morningglory: 0
morningglory; [4]
  Plant response rating, Morningglory: 0
morningglory; [5]
  Morningglory plant response rating: 0
morningglory; [6]
  Morningglory plant response rating: 1
morningglory; [7]
  Morningglory plant response rating: 0
morningglory; [8]
  Morningglory plant response rating: 0
pigweed; [1]
  Redroot pigweed plant response rating: 0
pigweed; [2]
  Redroot pigweed plant response rating: 7
pigweed; [3]
  Plant response rating, Redroot pigweed: 0
pigweed; [4]
  Plant response rating, Redroot pigweed: 0
pigweed; [5]
  Redroot pigweed plant response rating: 0
pigweed; [6]
  Redroot pigweed plant response rating: 10
pigweed; [7]
  Redroot pigweed plant response rating: 0
pigweed; [8]
  Redroot pigweed plant response rating: 0
rape; [1]
  Rape plant response rating: 0
rape; [2]
  Rape plant response rating: 4
rape; [3]
  Plant response rating, Rape: 0
rape; [4]
  Plant response rating, Rape: 0
rape; [5]
  Rape plant response rating: 0
rape; [6]
  Rape plant response rating: 10
rape; [7]
  Rape plant response rating: 0
rape; [8]
  Rape plant response rating: 0
Sugar beet; [1]
  Sugarbeets plant response rating: 0
Sugar beet; [2]
  Sugarbeets plant response rating: 0
Sugar beet; [3]
  Plant response rating, Sugarbeets: 0
Sugar beet; [4]
  Plant response rating, Sugarbeets: 0
Sugar beet; [5]
  Sugarbeets plant response rating: 0
Sugar beet; [6]
  Sugarbeets plant response rating: 5
Sugar beet; [7]
  Sugarbeets plant response rating: 0
Sugar beet; [8]
  Sugarbeets plant response rating: 0
velvetleaf; [1]
  Velvetleaf plant response rating: 0
velvetleaf; [2]
  Velvetleaf plant response rating: 3
velvetleaf; [3]
  Plant response rating, Velvetleaf: 0
velvetleaf; [4]
  Plant response rating, Velvetleaf: 0
velvetleaf; [5]
  Velvetleaf plant response rating: 0
velvetleaf; [6]
  Velvetleaf plant response rating: 7
velvetleaf; [7]
  Velvetleaf plant response rating: 0
velvetleaf; [8]
  Velvetleaf plant response rating: 0
wheat; [1]
  Wheat plant response rating: 0
wheat; [2]
  Wheat plant response rating: 7
wheat; [3]
  Plant response rating, Wheat: 0
wheat; [4]
  Plant response rating, Wheat: 0
wheat; [5]
  Wheat plant response rating: 0
wheat; [6]
  Wheat plant response rating: 5
wheat; [7]
  Wheat plant response rating: 0
wheat; [8]
  Wheat plant response rating: 0
Wild oat; [1]
  Wild oats plant response rating: 0
Wild oat; [2]
  Wild oats plant response rating: 3
Wild oat; [3]
  Plant response rating, Wild oats: 0
Wild oat; [4]
  Plant response rating, Wild oats: 0
Wild oat; [5]
  Wild oats plant response rating: 0
Wild oat; [6]
  Wild oats plant response rating: 10
Wild oat; [7]
  Wild oats plant response rating: 0
Wild oat; [8]
  Wild oats plant response rating: 0
Purple nutsedge; [1]
  Nutsedge plant response rating: 0
Purple nutsedge; [2]
  Nutsedge plant response rating: 3
Purple nutsedge; [3]
  Plant response rating, Nutsedge: 0
Purple nutsedge; [4]
  Plant response rating, Nutsedge: 0
Purple nutsedge; [5]
  Nutsedge plant response rating: 0
Purple nutsedge; [6]
  Nutsedge plant response rating: 5
Purple nutsedge; [7]
  Nutsedge plant response rating: 0
Purple nutsedge; [8]
  Nutsedge plant response rating: 0
Smallflower flatsedge; [9]
  S. Flatsedge plant response rating: 0
Smallflower flatsedge; [10]
  S. Flatsedge plant response rating: 0
Smallflower flatsedge; [11]
  S. Flatsedge plant response rating: 0
Smallflower flatsedge; [12]
  S. Flatsedge plant response rating: 0
Duck salad; [9]
  Ducksalad plant response rating: 0
Duck salad; [10]
  Ducksalad plant response rating: 0
Duck salad; [11]
  Ducksalad plant response rating: 0
Duck salad; [12]
  Ducksalad plant response rating: 0
